What was measured:
Experiment in all cases: relative viability (nuclei count vs DMSO), 5 days (fraction); higher = more cells survive
[1] = system: NCI-H2085
Method in brief: (§1)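 One day after seeding in 1536-well plates, lung cancer cell lines were dosed by pin tool. Dosing was either single-drug or a fixed anchor-drug dose plus five library-drug doses (not always all listed) in √10 steps. After 5 days, nuclei were stained in one fix-and-stain step and counted on 4× images, and relative viability is the nuclei count of treated wells over that of vehicle wells, given as the median of duplicate plates.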

[2] = system: NCI-H661
Method in brief: as §1

[3] = system: LXF-289
Method in brief: as §1

[4] = system: NCI-H1437
Method in brief: as §1

[5] = system: ChaGo-K-1
Method in brief: as §1

[6] = system: NCI-H441
Method in brief: as §1

[7] = system: EPLC-272H
Method in brief: as §1

[8] = system: NCI-H1793
Method in brief: as §1

[9] = system: NCI-H3122
Method in brief: as §1

[10] = system: LCLC-97TM1
Method in brief: as §1

[11] = system: NCI-H596
Method in brief: as §1

[12] = system: HARA
Method in brief: as §1

[13] = system: NCI-H1650
Method in brief: as §1

[14] = system: H3255
Method in brief: as §1

[15] = system: HCC-78
Method in brief: as §1

[16] = system: NCI-H1666
Method in brief: as §1

[17] = system: NCI-H2087
Method in brief: as §1

[18] = system: HOP-62
Method in brief: as §1

[19] = system: NCI-H1395
Method in brief: as §1

[20] = system: COR-L23
Method in brief: as §1

[21] = system: NCI-H1944
Method in brief: as §1

[22] = system: PC-14
Method in brief: as §1

[23] = system: NCI-H2126
Method in brief: as §1

Structure (SMILES): CCNC(=O)c1noc(-c2cc(C(C)C)c(O)cc2O)c1-c1ccc(CN2CCOCC2)cc1 [Luminespib] + CC(=O)Nc1cccc(-n2c(=O)n(C3CC3)c(=O)c3c(Nc4ccc(I)cc4F)n(C)c(=O)c(C)c32)c1 [Trametinib] (partner 0.02 µM)
- relative viability ([1]; first compound 0.002 µM): 0.535
- relative viability ([1]; first compound 0.006325 µM): 0.507
- relative viability ([1]; first compound 0.02 µM): 0.33
- relative viability ([1]; first compound 0.06325 µM): 0.202
- relative viability ([1]; first compound 0.2 µM): 0.241
- relative viability ([2]; first compound 0.002 µM): 0.56
- relative viability ([2]; first compound 0.006325 µM): 0.553
- relative viability ([2]; first compound 0.02 µM): 0.382
- relative viability ([2]; first compound 0.06325 µM): 0.265
- relative viability ([2]; first compound 0.2 µM): 0.256
- relative viability ([3]; first compound 0.002 µM): 0.691
- relative viability ([3]; first compound 0.006325 µM): 0.649
- relative viability ([3]; first compound 0.02 µM): 0.669
- relative viability ([3]; first compound 0.06325 µM): 0.622
- relative viability ([3]; first compound 0.2 µM): 0.624
- relative viability ([4]; first compound 0.002 µM): 0.595
- relative viability ([4]; first compound 0.006325 µM): 0.52
- relative viability ([4]; first compound 0.02 µM): 0.492
- relative viability ([4]; first compound 0.06325 µM): 0.325
- relative viability ([4]; first compound 0.2 µM): 0.217
- relative viability ([5]; first compound 0.002 µM): 0.831
- relative viability ([5]; first compound 0.006325 µM): 0.873
- relative viability ([5]; first compound 0.02 µM): 0.884
- relative viability ([5]; first compound 0.06325 µM): 0.861
- relative viability ([5]; first compound 0.2 µM): 0.892
- relative viability ([6]; first compound 0.002 µM): 0.555
- relative viability ([6]; first compound 0.006325 µM): 0.465
- relative viability ([6]; first compound 0.02 µM): 0.271
- relative viability ([6]; first compound 0.06325 µM): 0.0929
- relative viability ([6]; first compound 0.2 µM): 0.11
- relative viability ([7]; first compound 0.002 µM): 0.278
- relative viability ([7]; first compound 0.006325 µM): 0.309
- relative viability ([7]; first compound 0.02 µM): 0.212
- relative viability ([7]; first compound 0.06325 µM): 0.238
- relative viability ([7]; first compound 0.2 µM): 0.0855
- relative viability ([8]; first compound 0.002 µM): 0.428
- relative viability ([8]; first compound 0.006325 µM): 0.333
- relative viability ([8]; first compound 0.02 µM): 0.357
- relative viability ([8]; first compound 0.06325 µM): 0.187
- relative viability ([8]; first compound 0.2 µM): 0.186
- relative viability ([9]; first compound 0.002 µM): 0.179
- relative viability ([9]; first compound 0.006325 µM): 0.27
- relative viability ([9]; first compound 0.02 µM): 0.141
- relative viability ([9]; first compound 0.06325 µM): 0.242
- relative viability ([9]; first compound 0.2 µM): 0.186
- relative viability ([10]; first compound 0.002 µM): 0.233
- relative viability ([10]; first compound 0.006325 µM): 0.186
- relative viability ([10]; first compound 0.06325 µM): 0.221
- relative viability ([10]; first compound 0.2 µM): 0.166
- relative viability ([11]; first compound 0.002 µM): 0.873
- relative viability ([11]; first compound 0.006325 µM): 0.835
- relative viability ([11]; first compound 0.02 µM): 0.743
- relative viability ([11]; first compound 0.06325 µM): 0.806
- relative viability ([11]; first compound 0.2 µM): 0.646
- relative viability ([12]; first compound 0.002 µM): 0.667
- relative viability ([12]; first compound 0.006325 µM): 0.614
- relative viability ([12]; first compound 0.02 µM): 0.471
- relative viability ([12]; first compound 0.06325 µM): 0.121
- relative viability ([12]; first compound 0.2 µM): 0.141
- relative viability ([13]; first compound 0.002 µM): 0.571
- relative viability ([13]; first compound 0.006325 µM): 0.565
- relative viability ([13]; first compound 0.02 µM): 0.178
- relative viability ([13]; first compound 0.06325 µM): 0.1
- relative viability ([13]; first compound 0.2 µM): 0.0947
- relative viability ([14]; first compound 0.002 µM): 0.549
- relative viability ([14]; first compound 0.02 µM): 0.405
- relative viability ([14]; first compound 0.06325 µM): 0.386
- relative viability ([14]; first compound 0.2 µM): 0.278
- relative viability ([15]; first compound 0.002 µM): 0.74
- relative viability ([15]; first compound 0.006325 µM): 0.61
- relative viability ([15]; first compound 0.02 µM): 0.572
- relative viability ([15]; first compound 0.06325 µM): 0.874
- relative viability ([15]; first compound 0.2 µM): 0.512
- relative viability ([16]; first compound 0.002 µM): 0.845
- relative viability ([16]; first compound 0.006325 µM): 0.869
- relative viability ([16]; first compound 0.02 µM): 0.942
- relative viability ([16]; first compound 0.06325 µM): 0.818
- relative viability ([16]; first compound 0.2 µM): 0.982
- relative viability ([17]; first compound 0.002 µM): 0.197
- relative viability ([17]; first compound 0.006325 µM): 0.218
- relative viability ([17]; first compound 0.02 µM): 0.205
- relative viability ([17]; first compound 0.06325 µM): 0.146
- relative viability ([17]; first compound 0.2 µM): 0.11
- relative viability ([18]; first compound 0.002 µM): 0.37
- relative viability ([18]; first compound 0.006325 µM): 0.351
- relative viability ([18]; first compound 0.02 µM): 0.311
- relative viability ([18]; first compound 0.06325 µM): 0.309
- relative viability ([18]; first compound 0.2 µM): 0.183
- relative viability ([19]; first compound 0.002 µM): 0.994
- relative viability ([19]; first compound 0.006325 µM): 1.05
- relative viability ([19]; first compound 0.02 µM): 0.827
- relative viability ([19]; first compound 0.06325 µM): 0.35
- relative viability ([19]; first compound 0.2 µM): 0.379
- relative viability ([20]; first compound 0.002 µM): 0.569
- relative viability ([20]; first compound 0.006325 µM): 0.462
- relative viability ([20]; first compound 0.02 µM): 0.223
- relative viability ([20]; first compound 0.06325 µM): 0.0665
- relative viability ([20]; first compound 0.2 µM): 0.0604
- relative viability ([21]; first compound 0.002 µM): 0.467
- relative viability ([21]; first compound 0.006325 µM): 0.4
- relative viability ([21]; first compound 0.02 µM): 0.387
- relative viability ([21]; first compound 0.06325 µM): 0.405
- relative viability ([21]; first compound 0.2 µM): 0.354
- relative viability ([22]; first compound 0.002 µM): 0.738
- relative viability ([22]; first compound 0.006325 µM): 0.652
- relative viability ([22]; first compound 0.02 µM): 0.243
- relative viability ([22]; first compound 0.06325 µM): 0.0663
- relative viability ([22]; first compound 0.2 µM): 0.0601
- relative viability ([23]; first compound 0.002 µM): 0.608
- relative viability ([23]; first compound 0.006325 µM): 0.608
- relative viability ([23]; first compound 0.06325 µM): 0.667
- relative viability ([23]; first compound 0.2 µM): 0.599

From the supplement of paper PMC10307832
